In US20200239530A1, “COMPOUNDS AND METHODS OF MODULATING PROTEIN DEGRADATION” (Vividion Therapeutics, Inc., priority 2017, published 2020):
Values belong to the molecule of their own block, whether it stands above or below them.

Columns and labels:
Format in all cases: binding
[1] = biological target: T1, cysteine residue illustrated in Table 1A or Table 2A (Homo sapiens, UniProt P41002); assay: Competitive cysteine profiling of cell lysate with desthiobiotin iodoacetamide probe (96-well sample prep); details: UniProt P41002; 100 uM
T1 construct: Cells were resuspended in cold PBS on ice and sonicated with a probe sonicator to achieve lysis; endogenous in cells
Method in brief: (§1)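 Competitive profiling: compound and lysate (5 mg/ml protein) incubated 1 h at 25 °C before a 1 h, 25 °C desthiobiotin iodoacetamide probe step. Proteins were acetone-precipitated, reduced, alkylated and trypsinized; streptavidin-captured labelled peptides were eluted for MS analysis.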

[2] = biological target: T2, cysteine residue illustrated in Table 1A or Table 2A (Homo sapiens, UniProt P49754); assay: as above; details: UniProt P49754; KB05 100 uM
T2 construct: Cells were resuspended in cold PBS on ice and sonicated with a probe sonicator to achieve lysis; endogenous in cells
Method in brief: as §1

[3] = biological target: T3, cysteine residue illustrated in Table 1A or Table 2A (Homo sapiens, UniProt Q6ZT12); assay: as above; details: UniProt Q6ZT12; KB05 100 uM
T3 construct: Cells were resuspended in cold PBS on ice and sonicated with a probe sonicator to achieve lysis; endogenous in cells
Method in brief: as §1

[4] = biological target: T4, cysteine residue illustrated in Table 1A or Table 2A (Homo sapiens, UniProt Q7Z6J8); assay: as above; details: UniProt Q7Z6J8; KB05 100 uM
T4 construct: Cells were resuspended in cold PBS on ice and sonicated with a probe sonicator to achieve lysis; endogenous in cells
Method in brief: as §1

UniProt O60291 = biological target: T5, UniProt O60291 (Homo sapiens, UniProt O60291); assay: Cysteine liganding, probe competition
T5 construct: Cells were resuspended in cold PBS on ice and sonicated with a probe sonicator to achieve lysis; endogenous in cells
Description: (§2) The following 96-well sample prep protocol was used for sample preparation.

UniProt Q9C037 = biological target: T6, UniProt Q9C037 (Homo sapiens, UniProt Q9C037); assay: Cysteine liganding, probe competition; details: read-out: KB05_100 uM_percent_inhibition
T6 construct: 200 μL of lysate containing 5 mg/ml proteome was treated with 2 μL of 100× compound stock; endogenous in cells
Description: as §2

[5] = biological target: T7, cysteine residue illustrated in Table 1A or Table 2A (Homo sapiens, UniProt O95159); assay: Competitive cysteine profiling of cell lysate with desthiobiotin iodoacetamide probe (96-well sample prep); details: UniProt O95159; KB03 100 uM
T7 construct: Cells were resuspended in cold PBS on ice and sonicated with a probe sonicator to achieve lysis; endogenous in cells
Method in brief: as §1

[6] = biological target: T8, cysteine residue illustrated in Table 1A or Table 2A (Homo sapiens, UniProt Q15386); assay: as above; details: UniProt Q15386; KB03 100 uM
T8 construct: Cells were resuspended in cold PBS on ice and sonicated with a probe sonicator to achieve lysis; endogenous in cells
Method in brief: as §1

[7] = biological target: T9, cysteine residue illustrated in Table 1A or Table 2A (Homo sapiens, UniProt Q58WW2); assay: as above; details: UniProt Q58WW2; 100 uM
T9 construct: Cells were resuspended in cold PBS on ice and sonicated with a probe sonicator to achieve lysis; endogenous in cells
Method in brief: as §1

[8] = biological target: T10, cysteine residue illustrated in Table 1A or Table 2A (Homo sapiens, UniProt Q9H0M0); assay: as above; details: UniProt Q9H0M0; KB03 100 uM
T10 construct: Cells were resuspended in cold PBS on ice and sonicated with a probe sonicator to achieve lysis; endogenous in cells
Method in brief: as §1

UniProt P0DH78 = biological target: T11, UniProt P0DH78 (Homo sapiens, UniProt P0DH78); assay: Cysteine liganding, probe competition; details: read-out: percent_inhibition
T11 construct: 200 μL of lysate containing 5 mg/ml proteome was treated with 2 μL of 100× compound stock; endogenous in cells
Description: as §2

UniProt Q15366 = biological target: T12, UniProt Q15366 (Homo sapiens, UniProt Q15366); assay: Cysteine liganding, probe competition; details: read-out: KB02_500 uM_percent_inhibition
T12 construct: Cells were resuspended in cold PBS on ice and sonicated with a probe sonicator to achieve lysis; endogenous in cells
Description: as §2

UniProt Q9NQ86 = biological target: T13, UniProt Q9NQ86 (Homo sapiens, UniProt Q9NQ86); assay: Cysteine liganding, probe competition
T13 construct: 200 μL of lysate containing 5 mg/ml proteome was treated with 2 μL of 100× compound stock; endogenous in cells
Description: as §2

T13 sequence (Q9NQ86 whole entry, change not shown): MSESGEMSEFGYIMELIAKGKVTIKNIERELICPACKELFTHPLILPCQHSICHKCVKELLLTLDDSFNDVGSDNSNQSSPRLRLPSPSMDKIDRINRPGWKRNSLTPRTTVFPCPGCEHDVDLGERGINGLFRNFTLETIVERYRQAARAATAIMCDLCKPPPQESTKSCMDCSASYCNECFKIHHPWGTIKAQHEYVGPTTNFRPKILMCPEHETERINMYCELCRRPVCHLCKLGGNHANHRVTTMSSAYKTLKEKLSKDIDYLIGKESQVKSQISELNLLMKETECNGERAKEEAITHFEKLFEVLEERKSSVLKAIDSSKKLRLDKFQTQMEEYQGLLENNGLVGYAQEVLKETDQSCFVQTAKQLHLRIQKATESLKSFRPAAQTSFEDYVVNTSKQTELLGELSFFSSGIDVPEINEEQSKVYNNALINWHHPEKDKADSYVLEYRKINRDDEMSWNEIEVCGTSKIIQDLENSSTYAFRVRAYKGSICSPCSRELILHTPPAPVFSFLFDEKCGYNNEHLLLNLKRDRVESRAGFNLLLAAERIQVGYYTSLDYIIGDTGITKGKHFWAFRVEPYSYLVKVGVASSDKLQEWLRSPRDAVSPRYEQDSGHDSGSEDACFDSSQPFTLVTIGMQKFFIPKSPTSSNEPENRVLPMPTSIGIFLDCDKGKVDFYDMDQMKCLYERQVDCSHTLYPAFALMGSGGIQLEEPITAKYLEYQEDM
T5 sequence (O60291 whole entry, change not shown): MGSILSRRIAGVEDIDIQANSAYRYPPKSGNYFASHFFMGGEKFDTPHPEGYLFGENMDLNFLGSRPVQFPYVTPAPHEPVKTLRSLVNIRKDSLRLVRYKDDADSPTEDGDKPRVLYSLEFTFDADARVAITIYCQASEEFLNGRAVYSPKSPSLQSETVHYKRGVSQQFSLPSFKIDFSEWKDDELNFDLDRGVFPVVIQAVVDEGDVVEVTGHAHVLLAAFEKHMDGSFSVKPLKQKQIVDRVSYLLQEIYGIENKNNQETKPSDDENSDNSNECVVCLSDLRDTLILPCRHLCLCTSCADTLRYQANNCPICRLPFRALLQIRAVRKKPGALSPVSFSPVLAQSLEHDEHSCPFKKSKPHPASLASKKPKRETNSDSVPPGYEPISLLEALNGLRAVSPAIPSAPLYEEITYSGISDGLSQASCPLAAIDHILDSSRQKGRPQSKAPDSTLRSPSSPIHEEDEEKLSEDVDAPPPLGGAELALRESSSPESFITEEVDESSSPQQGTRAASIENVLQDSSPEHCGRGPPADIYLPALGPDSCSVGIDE
T11 sequence (P0DH78 whole entry, change not shown): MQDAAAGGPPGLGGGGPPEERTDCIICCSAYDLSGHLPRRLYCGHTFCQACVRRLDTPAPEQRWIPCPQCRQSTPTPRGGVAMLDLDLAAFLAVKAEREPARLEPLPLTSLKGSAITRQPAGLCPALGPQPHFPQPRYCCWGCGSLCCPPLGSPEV
T3 sequence (Q6ZT12 whole entry): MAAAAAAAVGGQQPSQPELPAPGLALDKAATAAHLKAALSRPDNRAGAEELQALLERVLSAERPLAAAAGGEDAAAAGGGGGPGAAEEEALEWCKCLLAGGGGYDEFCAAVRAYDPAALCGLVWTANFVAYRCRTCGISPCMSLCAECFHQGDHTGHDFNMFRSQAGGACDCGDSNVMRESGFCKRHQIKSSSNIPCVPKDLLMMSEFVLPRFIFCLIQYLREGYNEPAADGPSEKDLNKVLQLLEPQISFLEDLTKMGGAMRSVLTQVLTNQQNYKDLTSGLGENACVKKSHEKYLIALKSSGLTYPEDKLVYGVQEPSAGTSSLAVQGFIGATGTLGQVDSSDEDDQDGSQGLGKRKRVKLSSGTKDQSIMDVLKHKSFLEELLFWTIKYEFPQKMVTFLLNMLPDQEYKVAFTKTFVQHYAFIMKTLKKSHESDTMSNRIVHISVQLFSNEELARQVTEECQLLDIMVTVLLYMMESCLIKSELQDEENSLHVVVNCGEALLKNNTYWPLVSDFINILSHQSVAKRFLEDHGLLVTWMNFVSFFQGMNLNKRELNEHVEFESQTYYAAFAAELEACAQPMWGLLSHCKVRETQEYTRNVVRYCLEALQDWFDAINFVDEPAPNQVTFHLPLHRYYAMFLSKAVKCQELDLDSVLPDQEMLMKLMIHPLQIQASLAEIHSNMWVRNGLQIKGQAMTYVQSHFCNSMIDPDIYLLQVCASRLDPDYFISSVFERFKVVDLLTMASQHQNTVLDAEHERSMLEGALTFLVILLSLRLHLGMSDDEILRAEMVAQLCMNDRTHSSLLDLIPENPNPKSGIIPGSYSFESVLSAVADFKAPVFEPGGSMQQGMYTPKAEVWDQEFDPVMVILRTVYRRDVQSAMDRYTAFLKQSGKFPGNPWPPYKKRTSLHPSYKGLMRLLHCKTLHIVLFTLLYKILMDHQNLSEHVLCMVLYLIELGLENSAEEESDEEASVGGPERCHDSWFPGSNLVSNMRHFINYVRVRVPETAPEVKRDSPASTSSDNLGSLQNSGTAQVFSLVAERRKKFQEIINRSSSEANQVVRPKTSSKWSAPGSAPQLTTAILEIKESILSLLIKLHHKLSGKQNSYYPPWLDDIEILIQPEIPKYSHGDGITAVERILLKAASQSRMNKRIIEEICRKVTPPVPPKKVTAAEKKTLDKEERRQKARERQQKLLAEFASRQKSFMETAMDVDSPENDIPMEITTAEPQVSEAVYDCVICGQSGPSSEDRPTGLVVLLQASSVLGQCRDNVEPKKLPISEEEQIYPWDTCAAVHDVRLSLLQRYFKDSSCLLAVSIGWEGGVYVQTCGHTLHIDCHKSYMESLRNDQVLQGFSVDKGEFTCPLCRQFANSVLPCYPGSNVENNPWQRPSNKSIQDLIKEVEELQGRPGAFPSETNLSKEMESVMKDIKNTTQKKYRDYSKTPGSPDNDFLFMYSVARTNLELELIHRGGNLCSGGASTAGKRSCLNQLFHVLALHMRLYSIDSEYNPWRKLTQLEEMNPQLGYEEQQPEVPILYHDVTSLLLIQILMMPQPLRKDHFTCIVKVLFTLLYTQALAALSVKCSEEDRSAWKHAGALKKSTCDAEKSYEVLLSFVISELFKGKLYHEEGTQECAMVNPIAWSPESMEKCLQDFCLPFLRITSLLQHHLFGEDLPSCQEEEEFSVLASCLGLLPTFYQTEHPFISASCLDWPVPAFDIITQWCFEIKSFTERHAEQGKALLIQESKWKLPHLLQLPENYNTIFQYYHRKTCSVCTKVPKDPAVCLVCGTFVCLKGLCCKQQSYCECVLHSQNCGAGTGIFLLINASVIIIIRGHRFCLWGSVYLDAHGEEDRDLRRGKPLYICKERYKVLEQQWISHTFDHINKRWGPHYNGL
T7 sequence (O95159 whole entry): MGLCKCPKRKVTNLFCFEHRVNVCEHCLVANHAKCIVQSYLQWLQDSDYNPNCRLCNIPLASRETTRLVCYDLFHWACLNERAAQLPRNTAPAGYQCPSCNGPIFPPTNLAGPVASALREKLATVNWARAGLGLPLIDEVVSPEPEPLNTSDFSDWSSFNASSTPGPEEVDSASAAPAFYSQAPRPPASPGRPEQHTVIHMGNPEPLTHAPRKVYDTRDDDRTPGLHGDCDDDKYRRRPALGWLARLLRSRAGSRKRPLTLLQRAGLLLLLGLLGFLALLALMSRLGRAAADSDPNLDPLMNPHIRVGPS
T6 sequence (Q9C037 whole entry, change not shown): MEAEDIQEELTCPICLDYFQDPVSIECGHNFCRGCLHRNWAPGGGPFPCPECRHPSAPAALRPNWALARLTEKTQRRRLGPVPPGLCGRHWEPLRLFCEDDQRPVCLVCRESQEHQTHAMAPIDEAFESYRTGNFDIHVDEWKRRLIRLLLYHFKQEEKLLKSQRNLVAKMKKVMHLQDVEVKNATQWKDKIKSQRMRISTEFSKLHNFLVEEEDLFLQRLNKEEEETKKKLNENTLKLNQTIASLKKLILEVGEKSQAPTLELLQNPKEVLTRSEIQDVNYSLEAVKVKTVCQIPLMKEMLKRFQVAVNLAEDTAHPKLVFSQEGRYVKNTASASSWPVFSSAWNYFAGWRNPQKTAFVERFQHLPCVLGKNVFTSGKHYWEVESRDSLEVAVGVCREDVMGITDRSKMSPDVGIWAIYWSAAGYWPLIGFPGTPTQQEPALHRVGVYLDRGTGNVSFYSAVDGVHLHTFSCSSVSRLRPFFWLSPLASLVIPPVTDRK
T4 sequence (Q7Z6J8 whole entry): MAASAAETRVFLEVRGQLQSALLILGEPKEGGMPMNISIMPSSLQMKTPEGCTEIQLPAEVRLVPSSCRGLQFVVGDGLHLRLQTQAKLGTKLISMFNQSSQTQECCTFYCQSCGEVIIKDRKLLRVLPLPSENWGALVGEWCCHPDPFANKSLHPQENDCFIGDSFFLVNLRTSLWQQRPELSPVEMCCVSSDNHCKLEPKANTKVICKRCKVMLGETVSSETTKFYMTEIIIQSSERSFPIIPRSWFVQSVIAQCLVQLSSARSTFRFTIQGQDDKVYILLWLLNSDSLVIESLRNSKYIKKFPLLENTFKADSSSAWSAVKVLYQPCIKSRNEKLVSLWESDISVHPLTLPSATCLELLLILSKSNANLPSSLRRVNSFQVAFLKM
T12 sequence (Q15366 whole entry, change not shown): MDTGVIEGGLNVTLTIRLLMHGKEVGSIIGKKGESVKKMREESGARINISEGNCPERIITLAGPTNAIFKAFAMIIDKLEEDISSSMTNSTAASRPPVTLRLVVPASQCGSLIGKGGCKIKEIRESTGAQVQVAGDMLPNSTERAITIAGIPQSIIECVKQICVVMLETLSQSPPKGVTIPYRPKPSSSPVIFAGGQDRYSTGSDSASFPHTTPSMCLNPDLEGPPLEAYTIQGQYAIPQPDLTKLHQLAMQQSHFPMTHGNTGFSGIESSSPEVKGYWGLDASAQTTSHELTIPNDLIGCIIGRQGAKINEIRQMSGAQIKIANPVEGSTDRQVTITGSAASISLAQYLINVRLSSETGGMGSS

KB05_100 uM_percent_inhibition [1]: 49%
KB05_100 uM_percent_inhibition [2]: 10%
KB05_100 uM_percent_inhibition [3]: 41%
KB05_100 uM_percent_inhibition [4]: 13%
percent inhibition (UniProt O60291; 100 uM): 20%
inhibition at 100 µM (UniProt O60291; read-out: percent inhibition): 13%
inhibition at 100 µM (UniProt Q9C037): 11%
Structure (SMILES): C=CC(=O)N(c1ccccc1)c1ccc(Br)cc1 [KB05]

Structure (SMILES): O=C(CCl)Nc1cc(C(F)(F)F)cc(C(F)(F)F)c1 [KBO3]
KB03_100 uM_percent_inhibition [5]: 15%
KB03_100 uM_percent_inhibition [6]: 16%
KB03_100 uM_percent_inhibition [7]: 67%
KB03_100 uM_percent_inhibition [8]: 61%

Structure (SMILES): COc1ccc2c(c1)CCCN2C(=O)CCl [KB02]
inhibition at 100 µM (UniProt P0DH78; 100 uM): 17%
inhibition at 500 µM (UniProt P0DH78; 500 uM): 67%
inhibition at 500 µM (UniProt Q15366): 45%
inhibition at 100 µM (UniProt Q9NQ86; 100 uM, read-out: KB02_100 uM_percent_inhibition): 27%
KB02_500 uM_percent_inhibition (UniProt Q9NQ86; 500 uM): 88%
